Measurements published in patent US20230365537A1, “POLO LIKE KINASE 4 INHIBITORS” (ORIC Pharmaceuticals, Inc., priority 2021, published 2023).

What was measured:
[1] = target: human recombinant Aurora B (Homo sapiens (Human), UniProt Q96GD4); experiment: Aurora B Kinase Biochemical Assay (ADP-Glo); details: ratio of Aurora B IC50 to PLK4 IC50 (selectivity)
In short: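 IC50 derived by four-parameter nonlinear fit of ADP-Glo luminescence (ADP produced). Compound was preincubated 15 min at RT with 20 nM recombinant human Aurora B, in 50 mM HEPES pH 7.5, 10 mM MgCl2, 1 mM EGTA, 1 mM DTT, 0.01% Brij-35/BSA.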

[2] = target: human recombinant PLK4 (Homo sapiens (Human), UniProt O00444); experiment: PLK4 Biochemical Assay (ADP-Glo); details: 0.5 nM PLK4, 8.0 µM ATP, 4.7 µM MBP, 6 hours at RT
In short: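 Luminescent ADP-Glo detection quantified ADP production, with ATP depletion for 40 min and detection for 30 min at room temperature. Compound and PLK4 (1.0 nM stock addition) were preincubated 15 min in HEPES pH 7.5 buffer containing MgCl2, EGTA, DTT, Brij-35 and BSA. IC50 values were obtained by four-parameter nonlinear regression.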

[3] = target: human recombinant Aurora A (Homo sapiens (Human), UniProt O14965); experiment: Aurora A Kinase Biochemical Assay (ADP-Glo); details: ratio of Aurora A IC50 to PLK4 IC50 (selectivity)
Chain of human recombinant Aurora A (O14965 whole entry): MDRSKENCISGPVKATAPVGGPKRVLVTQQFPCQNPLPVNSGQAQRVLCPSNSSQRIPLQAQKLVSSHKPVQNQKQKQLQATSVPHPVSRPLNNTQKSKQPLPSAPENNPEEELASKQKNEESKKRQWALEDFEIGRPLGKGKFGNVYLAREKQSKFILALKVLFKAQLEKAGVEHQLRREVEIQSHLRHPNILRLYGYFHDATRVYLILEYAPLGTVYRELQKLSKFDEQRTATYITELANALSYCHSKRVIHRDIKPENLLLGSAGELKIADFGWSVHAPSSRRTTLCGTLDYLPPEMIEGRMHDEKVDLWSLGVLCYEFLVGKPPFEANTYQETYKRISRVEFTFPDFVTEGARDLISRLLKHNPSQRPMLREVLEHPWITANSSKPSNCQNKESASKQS

Chain of human recombinant PLK4 (O00444 whole entry): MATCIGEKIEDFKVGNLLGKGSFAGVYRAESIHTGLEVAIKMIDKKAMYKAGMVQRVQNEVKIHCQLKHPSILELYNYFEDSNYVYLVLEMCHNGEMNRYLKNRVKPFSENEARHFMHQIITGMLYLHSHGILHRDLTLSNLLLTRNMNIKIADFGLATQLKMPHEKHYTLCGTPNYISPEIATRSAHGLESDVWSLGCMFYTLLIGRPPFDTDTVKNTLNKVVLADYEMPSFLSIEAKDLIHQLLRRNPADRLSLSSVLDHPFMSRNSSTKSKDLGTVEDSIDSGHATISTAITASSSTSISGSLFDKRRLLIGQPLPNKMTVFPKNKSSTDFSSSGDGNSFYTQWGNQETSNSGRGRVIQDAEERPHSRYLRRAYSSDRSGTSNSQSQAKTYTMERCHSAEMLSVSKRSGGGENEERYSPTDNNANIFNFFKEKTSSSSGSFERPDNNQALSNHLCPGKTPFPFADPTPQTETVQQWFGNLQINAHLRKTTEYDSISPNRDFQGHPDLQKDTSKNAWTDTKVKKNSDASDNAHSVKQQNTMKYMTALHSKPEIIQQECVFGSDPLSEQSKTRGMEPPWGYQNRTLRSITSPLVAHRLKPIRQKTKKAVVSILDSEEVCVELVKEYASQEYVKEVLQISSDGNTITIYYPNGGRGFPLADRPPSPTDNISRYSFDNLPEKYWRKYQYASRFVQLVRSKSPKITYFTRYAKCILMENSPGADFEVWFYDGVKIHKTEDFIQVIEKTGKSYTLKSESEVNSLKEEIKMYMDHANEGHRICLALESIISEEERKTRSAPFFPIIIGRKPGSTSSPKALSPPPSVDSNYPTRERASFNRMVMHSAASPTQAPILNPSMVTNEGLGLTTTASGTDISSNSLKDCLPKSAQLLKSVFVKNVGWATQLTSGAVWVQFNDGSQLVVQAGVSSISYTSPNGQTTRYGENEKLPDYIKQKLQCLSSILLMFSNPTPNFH
Chain of human recombinant Aurora B (Q96GD4 whole entry): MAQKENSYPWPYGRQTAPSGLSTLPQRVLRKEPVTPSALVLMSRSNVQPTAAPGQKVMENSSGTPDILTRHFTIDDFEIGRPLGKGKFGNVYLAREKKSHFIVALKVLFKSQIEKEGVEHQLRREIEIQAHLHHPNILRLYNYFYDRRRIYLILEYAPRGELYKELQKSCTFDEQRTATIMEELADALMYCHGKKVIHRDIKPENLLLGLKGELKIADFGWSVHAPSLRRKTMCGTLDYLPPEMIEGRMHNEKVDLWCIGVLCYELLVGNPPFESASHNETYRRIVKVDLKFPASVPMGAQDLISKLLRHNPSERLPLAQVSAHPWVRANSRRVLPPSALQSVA

Row | Compound | [Aurora B IC50 (nM)]/[PLK4 IC50 (nM)] [1] | IC50 [2] [nM] | [Aurora A IC50 (nM)]/[PLK4 IC50 (nM)] [3]
1 | COc1ccc2c(c1)[C@]1(C[C@H]1c1ccc3c(Nc4cccc5c4OCC5=O)n[nH]c3c1)C(=O)N2 [Example 31, (1R,2S)-5′-methoxy-2-{3-[(3-oxo-2,3-dihydro-1-benzofuran-7-yl)amino]-1H-indazol-6-yl}spiro[cyclopropane-1,3′-indol]-2′(1′H)-one] | 22.17 | 3.02 | 207.053
2 | COc1ccc2c(c1)[C@]1(C[C@H]1c1ccc3c(Nc4ncncc4OC)n[nH]c3c1)C(=O)N2 [Example 4, (1R,2S)-5′-Methoxy-2-{3-[(5-methoxypyrimidin-4-yl)amino]-1H-indazol-6-yl}spiro[cyclopropane-1,3′-indol]-2′(1′H)-one] | 11.45 | 3.96 | 465.4867
3 | COc1ccc2c(c1)[C@]1(C[C@H]1c1ccc3c(Nc4ncnc(N5CC(O)C5)c4OC)n[nH]c3c1)C(=O)N2 [Example 43, (1R,2S)-2-(3-{[6-(3-hydroxyazetidin-1-yl)-5-methoxypyrimidin-4-yl]amino}-1H-indazol-6-yl)-5′-methoxyspiro[cyclopropane-1,3′-indol]-2′(1′H)-one] | 21.9 | 14.5 | 1347.136
4 | COc1ccc2c(c1)[C@]1(C[C@H]1c1ccc3c(Nc4nc(C5CCOC5)ncc4OC)n[nH]c3c1)C(=O)N2 (single isomer, unassigned) [Example 200] | 523.3415 | 3.26 | 906.0197
5 | COc1cnc(C)nc1Nc1n[nH]c2c(F)c([C@@H]3C[C@@]34C(=O)Nc3ccc(F)cc34)ccc12 [Example 142, (1R,2R)-5′-fluoro-2-{7-fluoro-3-[(5-methoxy-2-methylpyrimidin-4-yl)amino]-1H-indazol-6-yl}spiro[cyclopropane-1,3′-indol]-2′(1′H)-one] | 26.308 | 21.5 | 13.818
6 | COc1cnc(C)nc1Nc1n[nH]c2cc([C@@H]3C[C@@]34C(=O)N(C)c3ccccc34)ccc12 [Example 122, (1R,2S)-2-{3-[(5-methoxy-2-methylpyrimidin-4-yl)amino]-1H-indezol-6-yl}-1′-methylspiro[cyclopropane-1,3′-indol]-2′(1′H)-one] | 11.87 | 73.1 | 11.1709
7 | COc1cnc(C)nc1Nc1n[nH]c2cc([C@@H]3C[C@@]34C(=O)Nc3ccc(C(F)(F)F)cc34)ccc12 [Example 137, (1R,2S)-2-{3-[(5-methoxy-2-methylpyrimidin-4-yl)amino]-1H-indazol-6-yl}-5′-(trifluoromethyl)spiro[cyclopropane-1,3′-indol]-2′(1′H)-one] | 72 | 97.2 | 62
8 | COc1ccc2c(c1)[C@]1(C[C@H]1c1ccc3c(Nc4cc(N5CCOCC5)nc(C(C)C)n4)n[nH]c3c1)C(=O)N2 [Example 102, (1R,2S)-5′-methoxy-2-(3-{[6-(morpholin-4-yl)-2-(propan-2-yl)pyrimidin-4-yl]amino}-1H-indazol-6-yl)spiro[cyclopropane-l,3′-indol]-2′(1′H)-one] | 74.7 | 6.16 | 114.7355
9 | COc1ccc2c(c1)[C@]1(C[C@H]1c1ccc3c(Nc4cc(N5CC(OC)C5)ncn4)n[nH]c3c1)C(=O)N2 [Example 35, (1R,2S)-5′-methoxy-2-(3-{[6-(3-methoxyazetidin-1-yl)pyrimidin-4-yl]amino}-1H-indazol-6-yl)spiro[cyclopropane-1,3′-indol]-2′(1′H)-one] | 2.162 | 7.53 | 67.3
10 | COc1ccc2c(c1)[C@]1(C[C@H]1c1ccc3c(Nc4cc(N5CCS(=O)(=O)CC5)nc(C5CC5)n4)n[nH]c3c1)C(=O)N2 [Example 59, (1R,2S)-2-(3-((2-cyclopropyl-6-(1,1-dioxidothiomorpholino)pyrimidin-4-yl)amino)-1H-indazol-6-yl)-5′-methoxyspiro[cyclopropane-1,3′-indolin]-2′-one] | 39.23 | 8.44 | 108.4696
11 | COc1ccc2c(c1)[C@]1(C[C@H]1c1ccc3c(Nc4cn(C)nc4C(F)(F)F)n[nH]c3c1)C(=O)N2 [Example 64, (1R,2S)-5′-methoxy-2-(3-{[1-methyl-3-(trifluoromethyl)-1H-pyrazol-4-yl]amino)-1H-indazol-6-yl)spiro[cyclopropane-1,3′-indol]-2′(1′H)-one] | 98.84 | 87 | 210.2116
12 | COc1ccc2c(c1)[C@]1(C[C@H]1c1ccc3c(Nc4cc(C(C)C)nc(C)n4)n[nH]c3c1)C(=O)N2 [Example 151, (1R,2S)-5′-methoxy-2-(3-{[2-methyl-6-(propan-2-yl)pyrimidin-4-yl]amino}-1H-indazol-6-yl)spiro[cyclopropane-1,3′-indol]-2′(1′H)-one] | 96.3153 | 9.74 | 61.2440
13 | COc1cnc(C)nc1Nc1n[nH]c2cc([C@@H]3C[C@@]34C(=O)Nc3cc(F)ccc34)ccc12 [Example 131, (1R,2S)-6′-fluoro-2-{3-[(5-methoxy-2-methylpyrimidin-4-yl)amino]-1H-indazol-6-yl}spiro[cyclopropane-1,3′-indol]-2′(1′H)-one] | 40.8516 | 53.8 | 105.7084
14 | COc1ccc2c(c1)[C@]1(C[C@H]1c1ccc3c(Nc4cc(C)nn4CC(F)F)n[nH]c3c1)C(=O)N2 [Example 112, (1R,2S)-2-(3-{[1-(2,2-difluoroethyl)-3-methyl-1H-pyrazol-5-yl]amino}-1H-indazol-6-yl)-5′-methoxyspiro[cyclopropane-1,3′-indol]-2′(1′H)-one] | 121.8987 | 23.7 | 197.5105
15 | COc1ccc2c(c1)[C@]1(C[C@H]1c1ccc3c(Nc4ccc(C#N)nc4OC)n[nH]c3c1)C(=O)N2 [Example 260, 6-methoxy-5-({6-[(1R,2S)-5′-methoxy-2′-oxo-1′,2′-dihydrospiro[cyclopropane-1,3′-indol]-2-yl]-1H-indazol-3-yl}amino)pyridine-2-carbonitrile] | 294.8429 | 9.33 | 1330.5457
16 | COc1ccc2c(c1)[C@]1(C[C@H]1c1ccc3c(Nc4cc(N5CCCC5=O)cnc4OC)n[nH]c3c1)C(=O)N2 [Example 220, (1R,2S)-5′-methoxy-2-(3-{[2-methoxy-5-(2-oxopyrrolidin-1-yl)pyridin-3-yl]amino}-1H-indazol-6-yl)spiro[cyclopropane-1,3′-indol]-2′(1′H)-one] | 498.7527 | 6.01 | 1042.4081
17 | Cc1ncc(OC(F)F)c(Nc2n[nH]c3c(F)c([C@@H]4C[C@@]45C(=O)Nc4ccc(F)cc45)ccc23)n1 [Example 143, (1R,2R)-2-(3-{[5-(difluoromethoxy)-2-methylpyrimidin-4-yl]amino}-7-fluoro-1H-indazol-6-yl)-5′-fluorospiro[cyclopropane-1,3′-indol]-2′(1′H)-one] | 40.607 | 84.7 | 14.621
18 | COc1ccc2c(c1)[C@]1(C[C@H]1c1ccc3c(Nc4nc(C)cnc4C)n[nH]c3c1)C(=O)N2.O=C(O)C(F)(F)F [Example 82, (1R,2S)-2-{3-[(3,6-dimethylpyrazin-2-yl)amino]-1H-indazol-6-yl}-5′-methoxyspiro[cyclopropane-1,3′-indol]-2′(1′H)-one] | 38.55 | 6.21 | 187.8524
19 | COc1ccc2c(c1)[C@]1(C[C@H]1c1ccc3c(Nc4ncnc(N5CCS(=O)(=O)CC5)c4Cl)n[nH]c3c1)C(=O)N2 [Example 53] | 251.7986 | 1.25 | 4028.777
20 | COc1ccc2c(c1)[C@]1(C[C@H]1c1ccc3c(Nc4nc(C5CNC5)cnc4OC)n[nH]c3c1)C(=O)N2 [Example 110, (1R,2S)-2-(3-{[6-(azetidin-3-yl)-3-methoxypyrazin-2-yl]amino}-1H-indazol-6-yl)-5′-methoxyspiro[cyclopropane-1,3′-indol]-2′(1′H)-one] | 232.1904 | 3.91 | 679.6315
21 | COc1ccc2c(c1)[C@]1(C[C@H]1c1ccc3c(Nc4nc(N(C)C)ncc4C)n[nH]c3c1)C(=O)N2 [Example 182, (1R,2S)-2-(3-{[2-(dimethylamino)-5-methylpyrimidin-4-yl]amino}-1H-indazol-6-yl)-5′-methoxyspiro[cyclopropane-1,3′-indol]-2′(1′H)-one] | 198.8774 | 4.45 | 53.6821
22 | COc1ccc2c(c1)[C@]1(C[C@H]1c1ccc3c(Nc4cc(N5CC(O)C5)ncn4)n[nH]c3c1)C(=O)N2 [Example 36, (1R,2S)-2-(3-{[6-(3-hydroxyazetidin-1-yl)pyrimidin-4-yl]amino}-1H-indazol-6-yl)-5′-methoxyspiro[cyclopropane-1,3′-indol]-2′(1′H)-one] | 5.701 | 6.17 | 218.2083
